Tested on: CDAHFD-induced late stage NAFLD/NASH in mice
Assay: Benchmark study against Firsocostat and Fenofibrate in CDAHFD-induced late stage NAFLD/NASH
Assay type: in vivo, C57BL/6J male mice
Conditions: QD oral gavage four weeks; TOFA 250 mg/kg, Firsocostat 5 mg/kg, Fenofibrate 50 mg/kg
Procedure: Six-week-old C57BL/6J male mice were fed with a L-amino acid diet with 60 kcal % fat with 0.1% methionine and no added choline (CDAHFD; Research Diets A06071302i) for eight weeks. Mice were randomly assigned to treatment groups of either a vehicle (control), 250 mg/kg of TOFA, 5 mg/kg of Firsocostat (Gilead Sciences), 50 mg/kg of Fenofibrate, or a combined dose of 5 mg/kg Firsocostat and 50 mg/kg Fenofibrate. All treatments were delivered QD by oral gavage for an additional four weeks. Mice weights and food intake were monitored during the treatment time course. Upon study termination at 12 weeks, liver and serum samples were collected. Serum liver damage biomarkers, ALT and AST, were measured by commercially available kits (abcam 105134 and abcam 105135, respectively). Hepatic and serum triglyceride levels were measured from a commercially available kit (abcam65336). Total RNA was extracted from liver tissues (Qiagen RNeasy kit 74106), and cDNA was prepared (BioRAD iScript™ Reverse Transcription) according to manufacturer's protocols. Quantitative PCR (qPCR) was performed with fast SYBR Green Mix (ThermoFisher A25742) on the QuantStudio6 System (Applied Biosciences). Protein expression levels of liver samples were measured by western blot using antibodies against VLDLR (AF2258, 1:2000), CPT1A (CST12252, 1:1000) and Histone H3 (CST9715, 1:1000). Membranes were developed using a HRP secondary antibody (1:5000) and visualized using an enhanced chemiluminescent HRP substrate (Thermo34577). Additional liver samples were fixed in 4% paraformaldehyde and embedded in paraffin blocks for sectioning and subsequently stained with hematoxylin and eosin (H&E).

## COc1ccccc1[C@H](Cn1c(=O)n(C(C)(C)C(=O)O)c(=O)c2c(C)c(-c3ncco3)sc21)OC1CCOCC1 [Firsocostat, reference compound]
  serum ALT: decreases
  serum AST: decreases
